According to patent publication US4684650A, “Antihypertensive fluorophenylindanyl imidazolidinoneethylpiperazines” (priority 1984, dated 1987):
Read-outs that look alike come from different tables or passages of the source.

Assays:
[1] = test system: phenylephrine pressor responses; experiment: Antagonism to phenylephrine pressor responses in pithed rats; assay type: in vivo; settings: for change in vivo at […] / ED50: Rattus norvegicus, iv; for change in vivo at […]: read-out: Effects on pressor response of Phenylephrine, % eff. of […], pithed rats, […], jugular vein, read-out: Effects on pressor response of Phenylephrine, % eff. of 0.31 mg/kg; for ED50: read-out: Effects on pressor response of Phenylephrine, ED50; for Phenylephr. antg./5-HT antg. (ratio): ratio of phenylephrine ED50 to 5-HT ED50
Description: (§1) The rat is anaesthetized with ether, tracheotomized, artificial respired and pithed. The knitting-needle is introduced through the right orbita into the cranial cavity and passed through foramen magnum into the spinal canal as far as possible. The spinal cord is destroyed by turning the needle. After vagotomi both carotides are ligated and a catheter placed in the right one for pressure recording. The rat is adrenalectomized. […] The initial and post medication mean pressor effect is calculated, and the mean pressor effect is calculated as % of the initial value. Two to five preparations are employed for each dose level. The ED50 is determined.

[2] = test system: methylphenidate induced stereotypies; experiment: Methylphenidate Antagonism; assay type: in vivo, mice; settings: Mus musculus, ip, read-out: MePh antg. ED50, i.p., mice, 2 hours before methylphenidate 60 mg/kg s.c.
Description: The experiments were made as described by Pedersen and Christensen (1972) Acta Pharmacol. et Toxicol. 31, 488-496.--Briefly, test compounds or saline were injected i.p. 2 hours before methylphenidate, 60 mg/kg s.c. 3 pairs of mice were used for each dose level. After methylphenidate injection the mice were placed in observation cages for one hour. The cages were placed on corrugated paper, the corrugation facing upwards.

[3] = test system: spontaneous hypertensive rats (SHR); experiment: Antihypertensive effect in spontaneous hypertensive rats (SHR); assay type: in vivo; settings: for change in vivo at 5 mg/kg / ED10: Rattus norvegicus, ip; for change in vivo at 5 mg/kg: 1 h
Description: Antihypertensive effect in spontaneous hypertensive rats (SHR)
The femoral artery of male SHR is cannulated in anaestesia for blood pressure recordings. After a stabilization period of 11/2 h after discontinuation of the anaesthesia initial blood pressure curves are recorded and the systolic (SAP)/diastolic (DAP) pressure determined (-20, -10, 0, min. p.i.) Test substance is injected i.p. and the pressure curve recorded for one hour. The change in SAP/DAP is calculated in percent at mean initial values at different times (10, 20, 30, 40, 50 and 60 minutes after injection). At least two SHR are used per dose level. The maximum change is used for estimation of the drug effect.

[4] = test system: Quipazine-induced head shakes; experiment: Quipazine-induced head shakes; assay type: in vivo; settings: Rattus norvegicus, sc, rats, 2 hours before quipazine 5 mg/kg s.c.; read-out: Quipazine antg. (Q) ED50
Description: The rats were pretreated subcutaneously with test compound or saline 2 hours before injection of quipazine (5 mg/kg s.c.). The rats were then placed individually in perspex observation cages (12×25 cm), and in standard experiments the number of head shakes (involving the head and sometimes part of the body) were counted for 10 min., 30-40 min. after quipazine, where the effect was maximal. The number of head shakes in each dose group were expressed in percent of those induced in the control group, and ED50 values were calculated by log-probit analysis of results from at least 3 doses.
(§2) Each group consisted of 4-12 rats.

5-HT pressor responses = experiment: Antagonism to 5-HT pressor responses in pithed rats; assay type: in vivo; settings: for change in vivo at 0.02 mg/kg / ED50: Rattus norvegicus, iv; for change in vivo at 0.02 mg/kg: read-out: Effects on pressor response of 5-HT, % eff. of 0.02 mg/kg; for ED50: read-out: Effects on pressor response of 5-HT, ED50, pithed rats, jugular vein
Description: as §1

[5] = test system: 1-5-HTP-induced head shakes; experiment: 1-5-HTP-induced head shakes; assay type: in vivo; settings: s.c., rats, 1-5-HTP 75 mg/kg i.p. after citalopram
Description: The rats were pretreated subcutaneously with test compound or saline simultaneously with or 90 min before injection of citalopram (10 mg/kg s.c.).
as §2

5-HT2 receptors = target: T1, 5-HT2 receptors (Rattus norvegicus, UniProt P14842); experiment: 3H-spiroperidol binding to 5-HT2 receptors; settings: rat whole cortex, 0.5 nM 3H-spiroperidol, 0.3 μM sulpiride; read-out: 3H-SPI binding 5-HT2 IC50
T1 construct: Rat whole cortex was homogenized by an Ultra Turrax homogenizer; from tissue; host or cells: rat whole cerebral cortex, crude washed membranes
T1 sequence (P14842 whole entry): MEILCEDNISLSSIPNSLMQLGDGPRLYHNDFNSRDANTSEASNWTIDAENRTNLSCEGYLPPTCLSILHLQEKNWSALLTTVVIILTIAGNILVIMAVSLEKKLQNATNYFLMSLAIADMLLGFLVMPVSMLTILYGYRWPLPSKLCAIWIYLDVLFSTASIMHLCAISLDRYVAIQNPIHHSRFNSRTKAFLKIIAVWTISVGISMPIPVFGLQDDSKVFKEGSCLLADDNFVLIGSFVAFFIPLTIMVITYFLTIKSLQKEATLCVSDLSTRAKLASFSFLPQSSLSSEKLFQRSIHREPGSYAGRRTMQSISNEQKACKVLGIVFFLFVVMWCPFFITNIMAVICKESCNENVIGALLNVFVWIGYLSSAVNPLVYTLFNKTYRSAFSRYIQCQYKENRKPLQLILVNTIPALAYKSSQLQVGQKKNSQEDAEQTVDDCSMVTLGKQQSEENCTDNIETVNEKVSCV
Description: ^3 H-spiroperidol binding to 5-HT2 receptors.
Rat whole cortex was homogenized by an Ultra Turrax homogenizer in 100 vol. of 50 mM Tris buffer pH 7.7. The homogenate was centrifuged at 20,000 g for 10 minutes at 4° C. The pellet was rehomogenized in another volume of buffer and centrifuged as mentioned above. The final pellet was rehomogenized in 50 mM Tris buffer pH 7.7 containing 120 mM NaCl, 5 mM KCl, 2 mM CaCl2 and 1 mM MgCl2 (ion mix) in a volume corresponding to 12.5 mg original tissue per ml.
Test drugs were dissolved in water; ^3 H-spiroperidol (NEN, 28-30 Ci/mmol) was diluted in 3 μM sulpiride, and 800 μl membrane suspension were added. Final concentration of ligand and sulpiride were 0.5 nM and 0.3 μM, respectively. The samples were incubated at 37° C. for 10 min. The samples were then filtered under vacuum through Whatman GF/B glass-fiber filters. The tubes were then rinsed with 5 ml incubation buffer, which was poured on the filters. The filters were finally washed twice with 5 ml buffer and placed in counting vials. After addition of 5 ml scintillation fluid (Lumagel) radioactivity was estimated by liquid scintillation counting. Non-specific binding was obtained by adding Mianserin (1 μM) to separate samples. Each drug was tested at least twice at 5 concentrations in triplicate. IC50-values were determined from log concentration-response curves.--The presence of sulpiride excluded binding to dopamine D-2 receptors.

[6] = 5 mg/kg ip, diastolic pressure (DAP), max change within one hour, read-out: Antihypertensive eff. SHR, max eff. in % of 5 mg/kg ip, DAP
[7] = 5 mg/kg ip, systolic pressure (SAP), max change within one hour, read-out: Antihypertensive eff. SHR, max eff. in % of 5 mg/kg ip, SAP
[8] = 5 mg/kg ip, diastolic pressure (DAP), max change within one hour
[9] = 5 mg/kg ip, systolic pressure (SAP), max change within one hour
[10] = read-out: Antihypertensive eff. SHR, ED10 DAP
[11] = read-out: Antihypertensive eff. SHR, ED10 SAP

Structure (SMILES) | change in vivo at […] [1] [%] | ED50 [2] [µmol/kg] | change in vivo at 5 mg/kg [3, 6] [%] | change in vivo at 5 mg/kg [3, 7] [%] | ED50 [4] [µmol/kg] | change in vivo at 0.02 mg/kg (5-HT pressor responses; pithed rats, jugular vein) [%] | ED50 [1] [µmol/kg] | Phenylephr. antg./5-HT antg. (ratio) ([1]; pithed rats) | 1-5-HTP-antg. ED50 [5] [µmol/kg] | Antihypertensive eff. SHR, max eff. in % of 5 mg/kg ip, DAP [3, 8] [%] | Antihypertensive eff. SHR, max eff. in % of 5 mg/kg ip, SAP [3, 9] [%] | IC50 (5-HT2 receptors) [nM] | Effects on pressor response of 5-HT, % eff. of 0.02 mg/kg (5-HT pressor responses; pithed rats, jugular vein) [%] | further results
O=C1CCCN1CCN1CCN([C@@H]2C[C@@H](c3ccc(F)cc3)c3ccc(Cl)cc32)CC1 (relative stereo) [compound 21] | 3 | 11 | -14 | -11 | 0.079 | -83 | – | – | – | – | – | – | – | –
O=C1OCCN1CCN1CCN([C@@H]2C[C@@H](c3ccc(F)cc3)c3ccc(Cl)cc32)CC1 (relative stereo) [compound 22] | -5 | 2.8 | -21 | -17 | 0.12 | -77 | – | – | – | – | – | – | – | –
Fc1ccc([C@@H]2C[C@@H](N3CCN(CCN4CCNC4=S)CC3)c3cc(Cl)ccc32)cc1 (relative stereo) [compound 28] | -22 | 4.5 | -10 | -6 | 0.017 | -93 | – | – | – | – | – | – | – | –
Fc1ccc([C@@H]2C[C@@H](N3CCN(CCN4CCCC4=S)CC3)c3cc(Cl)ccc32)cc1 (relative stereo) [compound 29, (±)Trans-1-[3-(4-fluorophenyl)-6-chlorindan-1-yl]-4-[2-(2-pyrrolidinthion-1-yl)ethyl]piperazine] | 8 | – | -4 | -5 | < 0.17 | -88 | – | – | – | – | – | – | – | –
O=C1NCCN1CCN1CCN([C@@H]2C[C@@H](c3ccc(F)cc3)c3ccccc32)CC1 (single isomer, unassigned) [+1, (+)trans-1-[3-(4-fluorophenyl]indan-1-yl]-4-[2-(2-imidazolidinon-1-yl)ethyl]piperazine] | – | > 97 | – | – | – | – | 3.21 | 357 | 1.5 | -47 | -33 | 6 | -81 | ED10 [3, 10]: 1.2 µmol/kg; ED10 [3, 11]: 1.7 µmol/kg; peripheral or central action ([3]; in words): mainly possess periferal action; ED50 (5-HT pressor responses): 0.009 µmol/kg
O=C1NCCN1CCN1CCN([C@@H]2C[C@@H](c3ccc(F)cc3)c3ccc(F)cc32)CC1 (single isomer, unassigned) [+2, (+)Trans-1-[3-(4-fluorophenyl)-6-fluoroindan-1-yl]-4-[2-(2-imidazolidinon-1-yl)ethyl]piperazine] | – | > 61 | – | – | – | – | 1.43 | 143 | 0.10 | -40 | -31 | 4.3 | – | ED10 [3, 10]: 0.8 µmol/kg; ED10 [3, 11]: 1.6 µmol/kg; Effects on pressor response of 5-HT, ED50 (5-HT pressor responses; pithed rats, jugular vein): 0.010 µmol/kg
CN1CCN(CCN2CCN([C@@H]3C[C@@H](c4ccc(F)cc4)c4ccc(F)cc43)CC2)C1=O (single isomer, unassigned) [+3, (+)Trans-1-[3-(4-fluorophenyl)-6-fluoroindan-1-yl]-4-[2-(3-methyl-2-imidazolidinon-1-yl)ethyl]piperazine] | – | > 91 | – | – | – | – | 2.25 | 563 | 0.023 | – | – | 1.1 | -89 | change in vivo at 5 mg/kg ([3]; read-out: Antihypertensive eff. SHR, max eff. in % of 5 mg/kg ip, DAP, 5 mg/kg ip, diastolic pressure (DAP), max change within one hour): -52%; change in vivo at 5 mg/kg ([3]; read-out: Antihypertensive eff. SHR, max eff. in % of 5 mg/kg ip, SAP, 5 mg/kg ip, systolic pressure (SAP), max change within one hour): -38%; ED50 (5-HT pressor responses): 0.004 µmol/kg
O=C1NCCN1CCN1CCN([C@@H]2C[C@@H](c3ccc(F)cc3)c3ccc(Cl)cc32)CC1 (single isomer, unassigned) [+20, Trans-1-[3-(4-fluorophenyl)-6-chloroindan-1-yl]-4-[2-(2-imidazolidinon-1-yl)ethyl]piperazine, L(+)tartrate] | – | 49 | – | – | 0.028 | – | – | – | – | -45 | -29 | – | -92 | Effects on pressor response of Phenylephrine, % eff. of […] ([1]; pithed rats, […], jugular vein): -34%
